Activity calls are given as the source filed them. The calls are words filed in the database; no cut-off is given here.
Key:
A549 [1] = experiment: Cytotoxicity against human A549 cells assessed as cell growth inhibition incubated for 48 hrs by MTT assay; type: functional, cell-based; conditions: A549, 48 h
A549 [2] = experiment: Cytotoxicity against human A549 cells assessed as cell growth inhibition at 10 uM incubated for 48 hrs by MTT assay relative to control; type: functional
A549 [3] = experiment: Induction of cell cycle arrest in human A549 cells assessed as accumulation at G2/M phase at 10 uM incubated for 48 hrs by PI staining based flow cytometry analysis; type: functional

| SMILES | IC50 (A549 [1]) | inhibition at 10 µM (A549 [2]) | Activity (A549 [3]) |
| --- | --- | --- | --- |
| N#Cc1cccc(C(=O)c2cccc3c4ccccc4n(-c4ncccn4)c23)c1 | 13.7 µM | < 50% | – |
| O=C(OCc1ccccc1)c1cccc2c3ccccc3n(-c3ncccn3)c12 | 5.23 µM | – | Active |
| O=C(c1ccc(F)cc1)c1cccc2c3ccccc3n(-c3ncccn3)c12 | 2.58 µM | < 50% | Active |
| Cc1ccc(C(=O)c2cccc3c4ccccc4n(-c4ncccn4)c23)cc1 | 10 µM | 50% | Active |
| O=C(c1ccc(Br)cc1)c1cccc2c3ccccc3n(-c3ncccn3)c12 | 7.5 µM | 50% | Active |
| O=C(c1ccc(C(F)(F)F)cc1)c1cccc2c3ccccc3n(-c3ncccn3)c12 | 15.6 µM | 50% | Active |
| O=C(O)c1cccc2c3ccccc3n(-c3ncccn3)c12 | 15.5 µM | – | – |
| O=C(c1ccc(I)cc1)c1cccc2c3ccccc3n(-c3ncccn3)c12 | 12.5 µM | – | Active |
| COc1ccccc1C(=O)c1cccc2c3ccccc3n(-c3ncccn3)c12 | 4.02 µM | < 50% | Active |
| O=C(c1cccs1)c1cccc2c3ccccc3n(-c3ncccn3)c12 | 4.02 µM | < 50% | Active |
| O=C(c1ccc(OCc2ccccc2)cc1)c1cccc2c3ccccc3n(-c3ncccn3)c12 | 2.15 µM | < 50% | – |
| O=C(c1ccc(Cl)cc1)c1cccc2c3ccccc3n(-c3ncccn3)c12 | 6.69 µM | 50% | Active |
